Drawing on patent US5326764A, “Method for the treatment of hyperproliferative disorders” (Yale University, priority 1993, dated 1994), this text covers inhibition for two compounds.

In general, inhibition refers to the change of the read-out against control, counted positive when it falls.

The assay deals with human neonatal foreskin keratinocytes. As to the kind of experiment: Keratinocyte growth by cell counting after seven days. As to conditions: 168 h. Format: cell-based.

In the case of `O=c1[nH]cc(F)c(=O)[nH]1` [5-fluorouracil], the inhibition at 0.5 µM (read-out: inhibition of cell growth) came out at 30%. In the case of `CN(Cc1cnc2nc(N)nc(N)c2n1)c1ccc(C(=O)N[C@@H](CCC(=O)O)C(=O)O)cc1` [methotrexate], the inhibition at 0.1 µM (read-out: inhibition of growth of keratinocytes) turned out to be 32%.
